Data: patent US10981911B2, “Imidazopyrrolopyridine as inhibitors of the JAK family of kinases” (Janssen Pharmaceutica NV, priority 2016, dated 2021)

Key:
Type in all cases: biochemical
Tyk2-JH1JH2 = Tyk2-JH1JH2 (Homo sapiens (Human), UniProt P29597, C1142A/C936A); assay: Enzymatic inhibition assay (RapidFire HTMS), Tyk2; conditions: 50 μM ATP, 200 μM substrate
Description: (§1) LC/MS grade Water and Acetonitrile (ACN), were purchased from HoneyWell, Burdick & Jackson (Muskegon, Mich., USA). Dimethylsulfoxide 99.8% (DMSO) and Trifluoroacetic Acid 99.5% (TFA) were purchased from EMD Chemical (Gibbstown, N.J., USA). Adenosine triphosphate (ATP), 4-Morpholinepropanesulfonic acid (MOPS), Magnesium chloride (MgCl2), ethylenediaminetetraacetic acid (EDTA), dithiothreitol (DTT), formic acid >95% (FA) and Tween-20 were purchased from Sigma (St Louis, Mo., USA). 384-well polypropylene plates, Cat #781280 were purchased from Greiner (Monroe, N.C.), RapidFire™ cartridge A C4 Column (Agilent Technologies, Santa Clara, Calif.).
(§2) The HTMS experiments were performed in positive ionization mode on a RapidFire 300 instrument (Agilent Technologies, Santa Clara, Calif.), coupled with an ABSiex QTrap 4000 system with an Electrospray Ionization source (RF-MS) (Concord, ON, Canada). […] The entire system was operated using the RapidFire software interfaced with Analyst software for the mass spectrometer.
(§3) 11-point dosing series were made for each compound by serially diluting 1:3 or 1:4 in DMSO, with point 12 being a DMSO control. From the serial dilution plates, sample was transferred to a 384 wells assay plate (#781280, Greiner, Monroe, N.C.) using Labcyte Echo (Sunnyvale, Calif.), or Biosero ATS (San Diego, Calif.). The compounds were tested in duplicate. Column 12 was used for positive controls, and column 24 contained negative controls with no enzyme added. A compound from our internal collection, with inhibitory activity for JAK isoforms, was used as a reference compound. The final concentration of DMSO was ≤0.25% in a 20 μL reaction. […] The Tyk2 enzyme was pre-incubated with 2 mM ATP for 30 min prior to the reaction initiation. Immediately after the addition of the enzyme to the reaction mixture, the plate was centrifuged at 1000 rpm for 1 minute and incubated at 25° C. for 45 minutes for JAK 3 and 90 minutes for JAK1, JAK2 and Tyk2. The reaction was quenched by the addition of 20 μL of 0.5% TFA containing 0.15 μM of internal standard peptide using Multidrop Combi reagent dispenser (Thermo Scientific, Waltham, Mass.). […] After the quench, the assay plate was centrifuged at 3000 rpm for 3 minutes and sealed with pierceable aluminum foil (Cat #06644-001, Agilent) using a PlateLoc (Agilent Technologies, Santa Clara, Calif.). The plates then were transferred on to the RapidFire for the MS analysis. Compound inhibition was assessed by a decrease of the phosphorylated product levels in sample wells compared to the non-inhibited enzyme reaction.
(§4) The sample analysis on the RapidFire was performed using a mobile phase A consisting of Water/TFA/FA (100:0.01:0.1, v/v/v), a mobile phase B consisting of ACN/Water/TFA/FA (80:20:0.01:0.1, v/v/v). […] The samples were aspirated directly from the 384 assay plate and delivered onto RF-MS microscale solid-phase C4 extraction cartridge (Type A). The undesired component such as salt, cofactor, detergent and large protein were washed out and the retained analytes (substrate, product and IS) were coeluted directly onto the ABSiex Qtrap 4000 system.

JAK1-JH1JH2 = JAK1-JH1JH2 (Homo sapiens (Human), UniProt P23458); assay: Enzymatic inhibition assay (RapidFire HTMS), JAK1; conditions: 12.5 μM ATP, 200 μM substrate; read-out: JAK1-JH2JH1 IC50
JAK1-JH1JH2, sequence (P23458 574-1154): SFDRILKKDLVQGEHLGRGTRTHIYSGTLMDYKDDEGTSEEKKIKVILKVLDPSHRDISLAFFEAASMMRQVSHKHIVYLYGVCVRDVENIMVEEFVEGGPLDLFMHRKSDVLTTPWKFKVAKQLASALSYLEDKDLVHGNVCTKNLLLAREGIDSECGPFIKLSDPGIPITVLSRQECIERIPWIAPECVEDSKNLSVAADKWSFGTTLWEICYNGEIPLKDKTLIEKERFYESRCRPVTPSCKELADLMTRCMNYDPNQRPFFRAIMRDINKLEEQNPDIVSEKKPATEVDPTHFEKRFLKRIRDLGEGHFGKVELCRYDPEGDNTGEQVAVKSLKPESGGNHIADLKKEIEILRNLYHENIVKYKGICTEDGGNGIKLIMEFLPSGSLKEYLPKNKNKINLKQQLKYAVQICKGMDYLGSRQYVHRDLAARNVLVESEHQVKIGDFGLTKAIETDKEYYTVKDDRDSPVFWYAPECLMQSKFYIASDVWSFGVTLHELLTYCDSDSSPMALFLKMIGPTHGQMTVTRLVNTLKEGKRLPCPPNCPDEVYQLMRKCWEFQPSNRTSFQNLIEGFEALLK
Description: as §1, §2, §3, §4

JAK2-JH1JH2 = JAK2-JH1JH2 (Homo sapiens (Human), UniProt O60674); assay: Enzymatic inhibition assay (RapidFire HTMS), JAK2; conditions: 30 μM ATP, 40 μM substrate
JAK2-JH1JH2, sequence (O60674 532-1132): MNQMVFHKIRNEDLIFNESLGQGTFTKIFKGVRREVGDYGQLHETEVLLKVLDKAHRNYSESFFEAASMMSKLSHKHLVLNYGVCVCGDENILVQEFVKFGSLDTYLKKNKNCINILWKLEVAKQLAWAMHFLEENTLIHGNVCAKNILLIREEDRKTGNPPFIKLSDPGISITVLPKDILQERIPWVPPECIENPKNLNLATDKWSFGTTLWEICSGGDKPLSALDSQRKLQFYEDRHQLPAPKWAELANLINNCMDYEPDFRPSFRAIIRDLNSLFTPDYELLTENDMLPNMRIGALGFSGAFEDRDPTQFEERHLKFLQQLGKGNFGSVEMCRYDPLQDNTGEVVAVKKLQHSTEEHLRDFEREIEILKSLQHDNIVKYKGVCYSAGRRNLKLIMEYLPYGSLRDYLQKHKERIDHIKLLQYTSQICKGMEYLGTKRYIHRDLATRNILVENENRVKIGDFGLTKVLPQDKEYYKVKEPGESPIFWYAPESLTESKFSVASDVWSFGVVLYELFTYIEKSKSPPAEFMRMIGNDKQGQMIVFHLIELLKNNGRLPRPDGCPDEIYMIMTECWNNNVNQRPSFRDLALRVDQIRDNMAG
Description: as §1, §2, §3, §4

JAK3-JH1JH2 = JAK3-JH1JH2 (Homo sapiens (Human), UniProt P52333); assay: Enzymatic inhibition assay (RapidFire HTMS), JAK3; conditions: 150 μM ATP, 40 μM substrate
JAK3-JH1JH2, sequence (P52333 512-1124): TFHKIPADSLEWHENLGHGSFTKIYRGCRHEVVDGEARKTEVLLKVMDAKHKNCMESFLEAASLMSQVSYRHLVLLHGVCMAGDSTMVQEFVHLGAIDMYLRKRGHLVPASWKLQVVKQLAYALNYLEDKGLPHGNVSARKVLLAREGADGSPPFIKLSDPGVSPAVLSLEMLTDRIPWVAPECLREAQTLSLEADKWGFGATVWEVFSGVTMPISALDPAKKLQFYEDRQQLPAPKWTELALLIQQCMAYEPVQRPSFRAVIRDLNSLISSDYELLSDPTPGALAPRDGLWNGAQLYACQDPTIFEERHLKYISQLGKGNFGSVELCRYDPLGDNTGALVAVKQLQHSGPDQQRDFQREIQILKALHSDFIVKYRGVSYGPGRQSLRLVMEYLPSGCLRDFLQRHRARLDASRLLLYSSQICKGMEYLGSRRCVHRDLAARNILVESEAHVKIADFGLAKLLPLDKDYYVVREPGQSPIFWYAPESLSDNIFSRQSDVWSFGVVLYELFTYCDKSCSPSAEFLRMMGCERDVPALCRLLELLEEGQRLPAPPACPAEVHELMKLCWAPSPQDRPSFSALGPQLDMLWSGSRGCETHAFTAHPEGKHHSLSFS
Description: as §1, §2
as §3, with “compound.” for “compound. The final concentration of DMSO was ≤0.25% in a 20 μL reaction.”
as §4

Tyk2-JH1JH2, sequence (P29597 580-1182 C936A/C1142A): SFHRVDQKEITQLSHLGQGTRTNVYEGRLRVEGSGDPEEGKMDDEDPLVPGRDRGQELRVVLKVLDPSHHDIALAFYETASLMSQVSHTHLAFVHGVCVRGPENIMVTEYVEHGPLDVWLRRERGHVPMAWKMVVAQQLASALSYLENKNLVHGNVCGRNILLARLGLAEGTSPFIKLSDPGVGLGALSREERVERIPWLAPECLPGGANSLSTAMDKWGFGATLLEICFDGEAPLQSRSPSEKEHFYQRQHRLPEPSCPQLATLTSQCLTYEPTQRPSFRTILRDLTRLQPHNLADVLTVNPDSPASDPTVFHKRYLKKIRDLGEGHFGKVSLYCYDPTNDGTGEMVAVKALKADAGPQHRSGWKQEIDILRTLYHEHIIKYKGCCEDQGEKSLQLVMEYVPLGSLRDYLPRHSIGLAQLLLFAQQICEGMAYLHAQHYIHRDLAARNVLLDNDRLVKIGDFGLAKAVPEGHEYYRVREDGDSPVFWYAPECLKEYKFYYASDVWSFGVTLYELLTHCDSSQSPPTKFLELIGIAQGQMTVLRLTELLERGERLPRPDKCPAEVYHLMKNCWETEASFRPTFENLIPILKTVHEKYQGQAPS

An IC50 (Tyk2-JH1JH2) of 3.8 nM, an IC50 (JAK1-JH1JH2) of 0.1 nM and an IC50 (JAK2-JH1JH2) of 7.3 nM were found for N#CC[C@H]1CC[C@H](n2c(CC(=O)NCCO)nc3cnc4[nH]ccc4c32)CC1 [Ex. 29, 2-(1-((1r,4r)-4-(Cyanomethyl)cyclohexyl)-1,6-dihydroimidazo[4,5-d]pyrrolo[2,3-b]pyridin-2-yl)-N-(2-hydroxyethyl)acetamide] in this work. The IC50 (JAK3-JH1JH2) was 67.2 nM.

An IC50 (Tyk2-JH1JH2) of 6.4 nM, an IC50 (JAK1-JH1JH2) of 0.1 nM and an IC50 (JAK2-JH1JH2) of 35.3 nM were found for N#CC[C@H]1CC[C@H](n2c(CC(=O)N3CC(O)C3)nc3cnc4[nH]ccc4c32)CC1 [Ex. 18, 2-((1r,4r)-4-(2-(2-(3-Hydroxyazetidin-1-yl)-2-oxoethyl)imidazo[4,5-d]pyrrolo[2,3-b]pyridin-1(6H)-yl)cyclohexyl)acetonitrile] in this work. It also gave an IC50 (JAK3-JH1JH2) of 540 nM.

An IC50 (Tyk2-JH1JH2) of 10.7 nM, an IC50 (JAK1-JH1JH2) of 0.8 nM and an IC50 (JAK2-JH1JH2) of 150 nM were found for CC(C)c1noc(=O)n1Cc1nc2cnc3[nH]ccc3c2n1[C@H]1CC[C@H](CC#N)CC1 [Ex. 129, 2-((1r,4r)-4-(2-((3-Isopropyl-5-oxo-1,2,4-oxadiazol-4(5H)-yl)methyl)imidazo[4,5-d]pyrrolo[2,3-b]pyridin-1(6H)-yl)cyclohexyl)acetonitrile] in this work. It also gave an IC50 (JAK3-JH1JH2) of 2690 nM.

An IC50 (Tyk2-JH1JH2) of 59.5 nM, an IC50 (JAK1-JH1JH2) of 1.4 nM and an IC50 (JAK2-JH1JH2) of 77.9 nM were found for CC(C)(C)OC(=O)NCc1nc2cnc3[nH]ccc3c2n1[C@H]1CC[C@H](CC#N)CC1 [Ex. 158, tert-Butyl ((1-((1r,4r)-4-(Cyanomethyl)cyclohexyl)-1,6-dihydroimidazo[4,5-d]pyrrolo[2,3-b]pyridin-2-yl)methyl)carbamate] in this work. The IC50 (JAK3-JH1JH2) was 630 nM.

An IC50 (Tyk2-JH1JH2) of 53.5 nM, an IC50 (JAK1-JH1JH2) of 2.1 nM and an IC50 (JAK2-JH1JH2) of 75.2 nM were found for CC(C)NC(=O)c1nc2cnc3[nH]ccc3c2n1[C@H]1CC[C@H](CC#N)CC1 [Ex. 172, 1-((1r,4r)-4-(Cyanomethyl)cyclohexyl)-N-isopropyl-1,6-dihydroimidazo[4,5-d]pyrrolo[2,3-b]pyridine-2-carboxamide] in this work. For the same molecule, the IC50 (JAK3-JH1JH2) was 3060 nM.

An IC50 (Tyk2-JH1JH2) of 3.8 nM, an IC50 (JAK1-JH1JH2) of 0.3 nM and an IC50 (JAK2-JH1JH2) of 12.3 nM were found for N#CC[C@H]1CC[C@H](n2c(CC(=O)N3CCS(=O)(=O)CC3)nc3cnc4[nH]ccc4c32)CC1 [Ex. 67, 2-((1r,4r)-4-(2-(2-(1,1-Dioxidothiomorpholino)-2-oxoethyl)imidazo[4,5-d]pyrrolo[2,3-b]pyridin-1(6H)-yl)cyclohexyl)acetonitrile] in this work. It also gave an IC50 (JAK3-JH1JH2) of 121 nM.

An IC50 (Tyk2-JH1JH2) of 3.3 nM, an IC50 (JAK1-JH1JH2) of 0.1 nM and an IC50 (JAK2-JH1JH2) of 7.1 nM were found for N#CCCS(=O)(=O)NCc1nc2cnc3[nH]ccc3c2n1[C@H]1CC[C@H](CC#N)CC1 [Ex. 13, 2-Cyano-N-((1-((1r,4r)-4-(cyanomethyl)cyclohexyl)-1,6-dihydroimidazo[4,5-d]pyrrolo[2,3-b]pyridin-2-yl)methyl)ethanesulfonamide] in this work. For the same molecule, the IC50 (JAK3-JH1JH2) was 651 nM.

An IC50 (Tyk2-JH1JH2) of 2.6 nM, an IC50 (JAK1-JH1JH2) of 0.3 nM and an IC50 (JAK2-JH1JH2) of 2.1 nM were found for CC(C)CN1CCC(NC(=O)Cc2nc3cnc4[nH]ccc4c3n2[C@H]2CC[C@H](CC#N)CC2)CC1 [Ex. 62, 2-(1-((1r,4r)-4-(Cyanomethyl)cyclohexyl)-1,6-dihydroimidazo[4,5-d]pyrrolo[2,3-b]pyridin-2-yl)-N-(1-isobutylpiperidin-4-yl)acetamide] in this work. It also gave an IC50 (JAK3-JH1JH2) of 30.6 nM.

An IC50 (Tyk2-JH1JH2) of 1.6 nM, an IC50 (JAK1-JH1JH2) of 0.1 nM and an IC50 (JAK2-JH1JH2) of 0.3 nM were found for N#CC[C@H]1CC[C@H](n2c(-c3nc[nH]n3)nc3cnc4[nH]ccc4c32)CC1 [Ex. 9, 2-((1r,4r)-4-(2-(1H-1,2,4-Triazol-3-yl)imidazo[4,5-d]pyrrolo[2,3-b]pyridin-1(6H)-yl)cyclohexyl)acetonitrile] in this work. The IC50 (JAK3-JH1JH2) was 48.9 nM.

An IC50 (Tyk2-JH1JH2) of 12.1 nM, an IC50 (JAK1-JH1JH2) of 0.5 nM and an IC50 (JAK2-JH1JH2) of 20.5 nM were found for N#CC[C@H]1CC[C@H](n2c(CNC(=O)CC3CC3)nc3cnc4[nH]ccc4c32)CC1 [Ex. 94, N-((1-((1r,4r)-4-(Cyanomethyl)cyclohexyl)-1,6-dihydroimidazo[4,5-d]pyrrolo[2,3-b]pyridin-2-yl)methyl)-2-cyclopropylacetamide] in this work. It also gave an IC50 (JAK3-JH1JH2) of 264 nM.

An IC50 (Tyk2-JH1JH2) of 12.2 nM, an IC50 (JAK1-JH1JH2) of 0.2 nM and an IC50 (JAK2-JH1JH2) of 6.1 nM were found for N#CC[C@H]1CC[C@H](n2c(CC(=O)NCc3ccc(F)cc3)nc3cnc4[nH]ccc4c32)CC1 [Ex. 45, 2-(1-((1r,4r)-4-(Cyanomethyl)cyclohexyl)-1,6-dihydroimidazo[4,5-d]pyrrolo[2,3-b]pyridin-2-yl)-N-(4-fluorobenzyl)acetamide] in this work. The IC50 (JAK3-JH1JH2) was 183 nM.

An IC50 (Tyk2-JH1JH2) of 41.8 nM, an IC50 (JAK1-JH1JH2) of 3.4 nM and an IC50 (JAK2-JH1JH2) of 41.4 nM were found for N#CC[C@H]1CC[C@H](n2c(COC(=O)NC34CC5CC(CC(C5)C3)C4)nc3cnc4[nH]ccc4c32)CC1 [Ex. 196, (1-((1r,4r)-4-(Cyanomethyl)cyclohexyl)-1,6-dihydroimidazo[4,5-d]pyrrolo[2,3-b]pyridin-2-yl)methyl (3S,5S,7S)-adamantan-1-ylcarbamate] in this work. For the same molecule, the IC50 (JAK3-JH1JH2) was 660 nM.

An IC50 (Tyk2-JH1JH2) of 13.4 nM, an IC50 (JAK1-JH1JH2) of 0.4 nM and an IC50 (JAK2-JH1JH2) of 11.2 nM were found for N#CC[C@H]1CC[C@H](n2c(CC(=O)NC3CC4CCC3C4)nc3cnc4[nH]ccc4c32)CC1 (stereo partly drawn) [Ex. 78, N-((1S,4R)-Bicyclo[2.2.1]heptan-2-yl)-2-(1-((1r,4r)-4-(cyanomethyl)cyclohexyl)-1,6-dihydroimidazo[4,5-d]pyrrolo[2,3-b]pyridin-2-yl)acetamide] in this work. It also gave an IC50 (JAK3-JH1JH2) of 69.4 nM.

An IC50 (Tyk2-JH1JH2) of 7.4 nM, an IC50 (JAK1-JH1JH2) of 0.5 nM and an IC50 (JAK2-JH1JH2) of 11.5 nM were found for N#CC[C@H]1CC[C@H](n2c(CC(=O)NCC(O)c3ccccc3)nc3cnc4[nH]ccc4c32)CC1 (some centres unmarked) [Ex. 102, 2-(1-((1r,4r)-4-(Cyanomethyl)cyclohexyl)-1,6-dihydroimidazo[4,5-d]pyrrolo[2,3-b]pyridin-2-yl)-N-(2-hydroxy-2-phenylethyl)acetamide] in this work. For the same molecule, the IC50 (JAK3-JH1JH2) was 201 nM.

An IC50 (Tyk2-JH1JH2) of 1.9 nM, an IC50 (JAK1-JH1JH2) of 0.1 nM and an IC50 (JAK2-JH1JH2) of 1.2 nM were found for N#CC[C@H]1CC[C@H](n2c(CC(=O)Nc3ccccc3)nc3cnc4[nH]ccc4c32)CC1 [Ex. 20, 2-(1-((1r,4r)-4-(Cyanomethyl)cyclohexyl)-1,6-dihydroimidazo[4,5-d]pyrrolo[2,3-b]pyridin-2-yl)-N-phenylacetamide] in this work. For the same molecule, the IC50 (JAK3-JH1JH2) was 20.5 nM.

An IC50 (Tyk2-JH1JH2) of 3.4 nM, an IC50 (JAK1-JH1JH2) of 0.2 nM and an IC50 (JAK2-JH1JH2) of 5.6 nM were found for N#CC[C@H]1CC[C@H](n2c(CC(=O)NCC(F)(F)F)nc3cnc4[nH]ccc4c32)CC1 [Ex. 57, 2-(1-((1r,4r)-4-(Cyanomethyl)cyclohexyl)-1,6-dihydroimidazo[4,5-d]pyrrolo[2,3-b]pyridin-2-yl)-N-(2,2,2-trifluoroethyl)acetamide] in this work. For the same molecule, the IC50 (JAK3-JH1JH2) was 69.5 nM.

An IC50 (Tyk2-JH1JH2) of 6.3 nM, an IC50 (JAK1-JH1JH2) of 0.4 nM and an IC50 (JAK2-JH1JH2) of 19.9 nM were found for N#CC[C@H]1CC[C@H](n2c(CC(=O)N3CCC(CO)CC3)nc3cnc4[nH]ccc4c32)CC1 [Ex. 73, 2-((1r,4r)-4-(2-(2-(4-(Hydroxymethyl)piperidin-1-yl)-2-oxoethyl)imidazo[4,5-d]pyrrolo[2,3-b]pyridin-1(6H)-yl)cyclohexyl)acetonitrile] in this work. The IC50 (JAK3-JH1JH2) was 199 nM.
